Assay results as given in patent publication US20250186436A1 (4E Therapeutics, Inc., priority 2021, published 2025).
“And” between values parts separate entries of the source, which are not always exact repeats. Identical values can stand only once. Like-named read-outs stand apart in the source and are kept apart here.

Legend:
[1] = system: eIF4E phosphorylation at Serine 209 in HEK 293 cells; assay: eIF4E phosphorylation in HEK 293 cells (phospho-specific antibody, fluorescent plate reader); format: cell-based; settings: Homo sapiens, HEK293; eIF4E phosphorylation at Serine 209, 2 hours exposure; read-out: HEK 293 cell;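 note: Well-level p-eIF4E immunofluorescence normalized to DAPI signal, expressed as percent eIF4E phosphorylation, with IC50 derived from concentration-response curves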
Wistar rats = assay: Intravenous self-administration with oxycodone and saline regimen; format: in vivo; settings: rat, in vivo
Experimental: Ten male and eleven female Wistar rats (Charles River, Hollister, CA) were used in this study. Rats were housed in groups of 2-3 per cage prior to surgery, and then individually housed to protect their catheters, in a temperature-controlled (22° C.) vivarium on a 12/12h light/dark cycle (lights off at 8:00 AM) with ad libitum access to food and water. The rats acclimated to the animal facility for at least 7 days before surgery. All procedures adhered to the National Institutes of Health Guide for the Care and Use of Laboratory Animals and were approved by the Institutional Animal Care and Use Committee of The Scripps Research Institute.
For surgery, rats were anesthetized with 2 to 3% isoflurane. They were implanted with a silastic catheter (0.3 mm i.d.×0.64 mm o.d.; Dow Corning Co. Midland, MI) into the right external jugular vein under aseptic conditions. The distal end of the catheter was subcutaneously threaded to the back of the rat where it exited via a metal guide cannula (22G; Plastics One Inc., Roanoke, VA) that was anchored at the back of the rat and closed with a small plastic cap and metal cover cap to keep the inside part of the catheter clean and protected (Caine S B, et al. “Effects of dopamine D-1 and D-2 antagonists on cocaine self-administration under different schedules of reinforcement in the rat” J Pharmacol Exp Ther. 270(1):209-18 (1994); Wee S, et al. “Effects of dose and session duration on cocaine self-administration in rats” J Pharmacol Exp Ther. 320(3):1134-43 (2007); Zorrilla E P, et al. “Extended access cocaine self-administration differentially activates dorsal raphe and amygdala corticotropin-releasing factor systems in rats” Addict Biol. 17(2):300-8 (2012); Valtcheva M V, et al. “Surgical extraction of human dorsal root ganglia from organ donors and preparation of primary sensory neuron cultures” Nat Protoc. 11:1877-1888 (2016)). All incisions were closed using veterinary tissue adhesive. After surgery, rats were given analgesic (Flunixin, 2.5 mg/kg s.c.).
Rats were allowed 5-7 days for recovery prior to self-administration.
The patency of catheters in the rats was tested using an ultra-short-acting barbiturate methohexital sodium (Brevital, Eli Lilly, Indianapolis, 1N, 10 mg/mL, 2 mg/rat) every 10-12 days during the study. Generally, a total loss of muscle tone within 3 s after a methohexital sodium injection indicates the patency of a catheter. Any animal that failed the test was excluded from the study.
During experimental sessions, each rat was placed in a standard operant chamber, which was placed in a light- and sound-attenuating cubicle (28×26×20 cm; Med Associates Inc., St. Albans, VT). The front door and the back wall of the chamber were made of transparent plastic, and the other walls were opaque metal. The chamber had two retractable response levers mounted on one side of the opaque walls. A stimulus light was mounted above each lever. A drug injection was delivered by a syringe pump (Razel Scientific Instruments, Georgia, VT) located on top of the cubicle. Experimental sessions were controlled and recorded by a PC computer with custom interface and software in the experimental room.
Experimental sessions were conducted once a day, 5-7 days a week during the dark (active) cycle. After being flushed with 0.9% saline, a rat's indwelling catheter was connected to a tube that exited the chamber through a metal spring and a swivel and was connected to a syringe pump. After the drug delivery system was connected to the rat, the chamber was closed, and the 2 hr session was started immediately. The start of a session was signaled by the presentation of two response levers into the chamber. […] During an injection, stimulus lights above both levers were illuminated and lasted throughout a time-out period (20 s) that followed each injection. Pressing the left lever was counted but had no other programmed consequences. […]

P-gp (human MDR1, ABCB1) = assay: MDCK-MDR1 permeability (blood-brain barrier permeability); settings: dog
[2] = Plasma and brain concentrations, brain:plasma ratio 24 hr after last of five daily 1 mg/kg PO doses (Example 6); format: in vivo, rats; settings: for concentration at 24 h / Kp at 24 h: rat; for concentration at 24 h: oral, 1 mg/kg
Excerpt: Table 18 provides plasma and brain concentrations of 4ET-03-0053 at 24 hr after the last dose of five daily P0 doses.

[3] = Plasma and brain concentrations, brain:plasma ratio in rats 2 hr after single PO 1 mg/kg (Example 5); format: in vivo; settings: for concentration at 2 hr: po
Experimental: Table 15 provides plasma and brain concentrations at 2 hr after a single P0 dose of 1 mg/kg.

[4] = PK study in male Sprague-Dawley rats dosed once per day for five days, PO 25 mg/kg, 0.5% HPMC (Example 8); format: in vivo; settings: 0.5% HPMC suspension

Question: With Cc1cc(Nc2cc(N)ncn2)c(=O)n2c1C(=O)NC21CCC2(CC2)CC1 [4ET-03-053, 6″-((6-Aminopyrimidin-4-yl)amino)-8″-methyl-2″H-dispiro[cyclopropane-1,1′-cyclohexane-4′,3″-imidazo[1,5-a]pyridine]-1″,5″-dione] as the compound, how does the IC50 [1] read?
Answer: Its IC50 is 10.1 nM.

Question: And the “Mean Difference, Šídák's multiple comparisons test” value (“Mean Difference” below) (Wistar rats)?
Answer: The value was 1.500.

Question: What about the “Summary, Šídák's multiple comparisons test” value (Wistar rats) of the same compound?
Answer: The value was “ns”.

Question: And the addictive potential (Wistar rats)?
Answer: Its addictive potential is “negligible addictive potential”.

Question: What about the “numbers of infusions, multiple comparisons test: 0.05 mg/kg 4ET-03-053 and subsequent oxycodone” value (Wistar rats) of the same compound?
Answer: Its value is “significant differences”.

Question: What about the “numbers of infusions, multiple comparisons test: 0.1 mg/kg 4ET-03-053 and the final oxycodone test” value (Wistar rats) of the same compound?
Answer: The value was “significant differences”.

Question: And the “Mean Difference” value (Wistar rats; 0.05 mg/kg)?
Answer: Its value is −8.041.

Question: And the “Summary, Šídák's multiple comparisons test” value (Wistar rats; 0.05 mg/kg)?
Answer: The value was “ns”.

Question: And the “Mean Difference” value (Wistar rats; 0.15 mg/kg)?
Answer: The value was 5.441.

Question: What about the “Summary, Šídák's multiple comparisons test” value (Wistar rats; 0.15 mg/kg) of the same compound?
Answer: The value was “ns”.

Question: What about the Papp A→B at 5 uM (P-gp (human MDR1, ABCB1)) of the same compound?
Answer: Its Papp A→B at 5 uM is 63.3 ×10⁻⁶ cm/s.

Question: What about the Papp B→A at 5 uM (P-gp (human MDR1, ABCB1)) of the same compound?
Answer: Its Papp B→A at 5 uM is 68.1 ×10⁻⁶ cm/s.

Question: And the efflux ratio at 5 uM (P-gp (human MDR1, ABCB1))?
Answer: The efflux ratio at 5 uM was 1.1.

Question: What about the concentration at 24 h ([2]; male, Sprague-Dawley, brain homogenate, rats, brain homogenate, 24 hr after the last 1 mg/kg PO dose on day 5, individual animals (n = 3), read-out: Tissue Homogenate Conc.) of the same compound?
Answer: Its concentration at 24 h is 7.22 ng/mL.

Question: And the concentration at 24 h ([2]; male, Sprague-Dawley, brain homogenate, rats, brain homogenate, 24 hr after the last 1 mg/kg PO dose on day 5, mean, read-out: Tissue Homogenate Conc., Mean)?
Answer: Its concentration at 24 h is 6.02 ng/mL.

Question: And the concentration at 24 h ([2]; male, Sprague-Dawley, brain, rats, brain, 24 hr after the last 1 mg/kg PO dose on day 5, read-out: Mean Tissue)?
Answer: The concentration at 24 h was 24.1 ng/g.

Question: And the concentration at 24 h ([2]; male, Sprague-Dawley, plasma, rats, plasma, 24 hr after the last 1 mg/kg PO dose on day 5, individual animals (n = 3), read-out: Plasma Conc.)?
Answer: The concentration at 24 h was 318 ng/mL.

Question: And the concentration at 24 h ([2]; male, Sprague-Dawley, plasma, rats, plasma, 24 hr after the last 1 mg/kg PO dose on day 5, mean, read-out: Plasma Conc., Mean)?
Answer: The concentration at 24 h was 278 ng/mL.

Question: And the Kp at 24 h ([2]; male, Sprague-Dawley, rats, brain to plasma, 24 hr after the last 1 mg/kg PO dose on day 5, read-out: Mean Tissue/Plasma Conc. Ratio)?
Answer: Its Kp at 24 h is 0.086.

Question: And the Kp at 24 h ([2]; brain, Sprague-Dawley rats, 24 hr after the last dose of five daily PO doses of 1 mg/kg, read-out: brain:plasma ratio)?
Answer: Its Kp at 24 h is 0.086.

Question: And the “Tissue Homogenate Conc.” value ([2]; rats, brain homogenate, 24 hr after the last 1 mg/kg PO dose on day 5, individual animals (n = 3))?
Answer: The value was 5.79 ng/mL and 5.04 ng/mL.

Question: What about the “Plasma Conc.” value ([2]; rats, plasma, 24 hr after the last 1 mg/kg PO dose on day 5, individual animals (n = 3)) of the same compound?
Answer: The value was 291 ng/mL and 226 ng/mL.

Question: What about the concentration at 2 hr ([3]; male, Sprague-Dawley, rat, brain homogenate, 1 mg/kg, rats, brain homogenate, 2 hr after single PO 1 mg/kg, individual animals (n = 3), read-out: Tissue Homogenate Conc.) of the same compound?
Answer: The concentration at 2 hr was 9.82 ng/mL.

Question: And the concentration at 2 hr ([3]; male, Sprague-Dawley, rat, brain homogenate, 1 mg/kg, rats, brain homogenate, 2 hr after single PO 1 mg/kg, mean, read-out: Tissue Homogenate Conc., Mean)?
Answer: Its concentration at 2 hr is 11.8 ng/mL.

Question: And the concentration at 2 hr ([3]; male, Sprague-Dawley, rat, brain, 1 mg/kg, rats, brain, 2 hr after single PO 1 mg/kg, read-out: Mean Tissue)?
Answer: Its concentration at 2 hr is 47.2 ng/g.

Question: What about the concentration at 2 hr ([3]; male, Sprague-Dawley, rat, plasma, 1 mg/kg, rats, plasma, 2 hr after single PO 1 mg/kg, individual animals (n = 3), read-out: Plasma Conc.) of the same compound?
Answer: Its concentration at 2 hr is 506 ng/mL.

Question: And the concentration at 2 hr ([3]; male, Sprague-Dawley, rat, plasma, 1 mg/kg, rats, plasma, 2 hr after single PO 1 mg/kg, mean, read-out: Plasma Conc., Mean)?
Answer: The concentration at 2 hr was 566 ng/mL.

Question: And the Kp at 2 hr ([3]; male, Sprague-Dawley, rat, rats, brain to plasma, 2 hr after single PO 1 mg/kg, read-out: Mean Tissue/Plasma Conc. Ratio)?
Answer: The Kp at 2 hr was 0.083.

Question: And the Kp at 2 h ([3]; rat, brain, Sprague-Dawley rats, 2 hr after a single PO dose of 1 mg/kg)?
Answer: The Kp at 2 h was 0.083.

Question: And the “Tissue Homogenate Conc.” value ([3]; rats, brain homogenate, 2 hr after single PO 1 mg/kg, individual animals (n = 3), 1 mg/kg)?
Answer: Its value is 11.4 ng/mL and 14.2 ng/mL.

Question: And the “Plasma Conc.” value ([3]; rats, plasma, 2 hr after single PO 1 mg/kg, individual animals (n = 3), 1 mg/kg)?
Answer: The value was 539 ng/mL and 652 ng/mL.

Question: What about the half-life ([4]; male, Sprague-Dawley, rat, in vivo, po, 25 mg/kg, single PO 25 mg/kg dose, individual animals) of the same compound?
Answer: The half-life was 7.03 h.

Question: And the concentration at 24 h ([4]; male, Sprague-Dawley, rat, in vivo, po, 25 mg/kg, single PO 25 mg/kg dose, mean (n = 3), read-out: Clast)?
Answer: The concentration at 24 h was 2890 ng/mL.

Question: What about the concentration at 24 h ([4]; male, Sprague-Dawley, rat, in vivo, po, 25 mg/kg, single PO 25 mg/kg, at 24 hr, read-out: last measurable concentration) of the same compound?
Answer: The concentration at 24 h was 2890 ng/mL.

Question: And the F ([4]; single PO 25 mg/kg dose, mean (n = 3))?
Answer: Its F is 26.5%.

Question: And the “time to peak plasma concentration” value ([4]; single PO 25 mg/kg)?
Answer: The value was no more than 2 h.
